Measured values taken from ChEMBL document CHEMBL1201862, “PubChem BioAssay data set” (2004).
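48-hour exposure; five concentrations; linearly interpolated endpoints. GI50 = concentration required for 50% inhibition of growth.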 Active and inactive are the calls of the source. Cut-off read from the data, not from the text of the source: active = GI50 up to about 1.1 µM and inactive = higher.

Experiments:
Experiment in all cases: inhibition of tumour cell growth, NCI panel, 48 h
[1] = system: DMS-273
[2] = system: MCF7
[3] = system: XF498
[4] = system: NCI/ADR-RES
[5] = system: LXFL 529
[6] = system: RXF 631
[7] = system: DU-145
[8] = system: MDA-MB-231
[9] = system: BT-549

What does the source list for NC(Cc1cc(I)c(O)c(I)c1)C(=O)O (stereo not given)?
GI50 [1]: > 206 µM (inactive); GI50 [2]: > 394 µM (inactive); GI50 [3]: > 348 µM (inactive); GI50 [4]: > 316 µM (inactive)

What does the source list for CC(=O)NC(CCCNC(=O)N(C)N=O)C(=O)NCc1ccccc1 (stereo not given)?
GI50 [5]: > 100 µM (inactive); GI50 [1]: > 100 µM (inactive); GI50 [6]: > 100 µM (inactive); GI50 [3]: > 100 µM (inactive)

For C[C@]12CCC(=O)C=C1CC[C@@H]1C2CC[C@]2(C)NC(=O)C(C#N)CC12 (stereo not given in full), which GI50 [5] is on record?
Its GI50 is > 100 µM (inactive).

And the GI50 [1]?
The GI50 was > 100 µM (inactive).

What about the GI50 [3] of the same compound?
Its GI50 is > 100 µM (inactive).

For CC1NC(=O)C2=C1C(N)=NC(=O)C2 (stereo not given), which GI50 [5] is on record?
The GI50 was > 100 µM (inactive).

What about the GI50 [1] of the same compound?
The GI50 was > 100 µM (inactive).

What about the GI50 [3] of the same compound?
The GI50 was > 100 µM (inactive).

What does the source list for COc1cc(/C=C2/C(=O)NC(Cc3cc(OC)c(OC)c(C)c3OC)C(=O)N2Cc2ccccc2)c(OC)c(C)c1OC (stereo not given)?
GI50 [5]: 34.8 µM (inactive); GI50 [1]: 51.5 µM (inactive); GI50 [6]: 90.2 µM (inactive)

How did the GI50 [5] turn out when Cc1nc2ccc(C(F)(F)F)cc2nc1Nc1ccc(Cl)c(Cl)c1 was run?
Its GI50 is 7.87 µM (inactive).

And the GI50 [1]?
Its GI50 is 4.81 µM (inactive).

What about the GI50 [6] of the same compound?
Its GI50 is 7.41 µM (inactive).

And the GI50 [3]?
The GI50 was 10 µM (inactive).

Which results are given for CN[C@@H](C)[C@@H](NC)c1ccccc1?
GI50 [5]: > 100 µM (inactive); GI50 [1]: > 100 µM (inactive); GI50 [6]: > 100 µM (inactive)

CCNCCCCNCC was tested. Which GI50 [1] did it give?
The GI50 was > 2550 µM (inactive).

And the GI50 [2]?
The GI50 was > 3750 µM (inactive).

And the GI50 [3]?
The GI50 was > 3750 µM (inactive).

What about the GI50 [4] of the same compound?
The GI50 was > 3750 µM (inactive).

How did the GI50 [1] turn out when [N-]=[N+]=CC(=O)CCC(NC(=O)C(CCC(=O)C=[N+]=[N-])NC(=O)CCC(N)C(=O)O)C(=O)O (stereo not given) was run?
Its GI50 is > 100 µM (inactive).

And the GI50 [2]?
Its GI50 is > 100 µM (inactive).

What about the GI50 [3] of the same compound?
Its GI50 is > 100 µM (inactive).

And the GI50 [4]?
The GI50 was > 100 µM (inactive).

CC1=N/C(=C/c2ccc3c(c2)OCO3)C(=O)O1 was tested. Which GI50 [5] did it give?
Its GI50 is > 100 µM (inactive).

What about the GI50 [1] of the same compound?
The GI50 was > 100 µM (inactive).

What about the GI50 [6] of the same compound?
The GI50 was > 100 µM (inactive).

And the GI50 [3]?
The GI50 was > 100 µM (inactive).

What does the source list for NC(=O)c1ccccc1NC(=O)C(=O)Nc1n[nH]c(N)n1?
GI50 [5]: > 100 µM (inactive); GI50 [1]: > 100 µM (inactive); GI50 [3]: > 100 µM (inactive)

With COc1ccc2c(c1)c(=O)c1ccccc1n2/C=C/C(=O)O as the compound, how does the GI50 [5] read?
Its GI50 is > 100 µM (inactive).

What about the GI50 [1] of the same compound?
Its GI50 is > 41.3 µM (inactive).

What about the GI50 [3] of the same compound?
The GI50 was > 100 µM (inactive).

What does the source list for CC(=O)Nc1cccc2[nH]c3ccccc3c(=O)c12?
GI50 [1]: 32.2 µM (inactive); GI50 [6]: 27 µM (inactive); GI50 [3]: 23.1 µM (inactive)

Which results are given for COC(=O)C#CC(N)=O?
GI50 [5]: > 100 µM (inactive); GI50 [1]: > 100 µM (inactive); GI50 [6]: > 100 µM (inactive)

For C/C(=N\N=C(/S)N1CCCCCC1)c1cccc[n+]1[O-], which GI50 [7] is on record?
The GI50 was 31.5 µM (inactive).

What about the GI50 [5] of the same compound?
The GI50 was 0.348 µM (active).

What about the GI50 [1] of the same compound?
The GI50 was 1.87 µM (inactive).

And the GI50 [8]?
The GI50 was 7.59 µM (inactive).

What about the GI50 [2] of the same compound?
Its GI50 is 2.64 µM (inactive).

And the GI50 [6]?
The GI50 was 8.59 µM (inactive).

What about the GI50 [3] of the same compound?
Its GI50 is 5.27 µM (inactive).

What about the GI50 [9] of the same compound?
Its GI50 is 16 µM (inactive).

What does the source list for COc1ccc(C(c2ccc(C(C)C)cc(=O)c2O)c2c(O)cc3oc(-c4ccccc4)cc(=O)c3c2O)cc1 (stereo not given)?
GI50 [5]: 14 µM (inactive); GI50 [1]: 5.08 µM (inactive); GI50 [6]: 11.3 µM (inactive); GI50 [3]: 9.4 µM (inactive)

How did the GI50 [5] turn out when CC(=O)C1CC(C)=CCC12C(=O)Nc1ccccc12 (stereo not given) was run?
The GI50 was > 100 µM (inactive).

And the GI50 [1]?
Its GI50 is > 100 µM (inactive).

And the GI50 [6]?
The GI50 was > 100 µM (inactive).

What about the GI50 [3] of the same compound?
The GI50 was > 100 µM (inactive).

What does the source list for N#Cc1ccccc1C(Cl)(Cl)c1cnccn1?
GI50 [5]: 75.9 µM (inactive); GI50 [1]: 37.2 µM (inactive); GI50 [3]: 17.9 µM (inactive)

How did the GI50 [5] turn out when C#C[C@H](CCCC)OC(=O)N[C@H](C)c1ccccc1 was run?
The GI50 was 36.3 µM (inactive).

And the GI50 [1]?
The GI50 was 38.8 µM (inactive).

And the GI50 [6]?
The GI50 was 62.1 µM (inactive).

And the GI50 [3]?
The GI50 was 84.1 µM (inactive).

CC(=O)n1nnc2ccc([N+](=O)[O-])cc21 was tested. Which GI50 [5] did it give?
The GI50 was > 100 µM (inactive).

What about the GI50 [1] of the same compound?
Its GI50 is > 100 µM (inactive).

And the GI50 [3]?
Its GI50 is > 100 µM (inactive).

Which results are given for CCC(C)C(=O)c1c(O)c(C/C=C(\C)CCC=C(C)C)c(O)c2c(C(O)CC)cc(=O)oc12 (stereo not given)?
GI50 [5]: 1.16 µM (inactive); GI50 [1]: 1.58 µM (inactive); GI50 [6]: 1.74 µM (inactive); GI50 [3]: 1.82 µM (inactive)

CC1=NN(c2ccccc2)C(=O)C12[C@H](c1ccccc1)C2(C#N)C#N (stereo not given in full) was tested. Which GI50 [5] did it give?
The GI50 was 1.96 µM (inactive).

And the GI50 [1]?
Its GI50 is 2.67 µM (inactive).

What about the GI50 [3] of the same compound?
The GI50 was 3.4 µM (inactive).

Which results are given for COC(=O)/C=c1\s/c(=C\C(=O)OC)c2ccccc12?
GI50 [5]: > 100 µM (inactive); GI50 [1]: 6.44 µM (inactive); GI50 [6]: > 100 µM (inactive)

COc1ccc2c(c1)O[C@H]1c3ccc(O)cc3OC[C@@H]21 was tested. Which GI50 [5] did it give?
The GI50 was 25.4 µM (inactive).

And the GI50 [1]?
The GI50 was 30.9 µM (inactive).

And the GI50 [6]?
Its GI50 is 31.8 µM (inactive).

And the GI50 [3]?
The GI50 was 20.5 µM (inactive).

For C[C@H]1COC(c2ccccn2)=N1, which GI50 [1] is on record?
Its GI50 is > 100 µM (inactive).

And the GI50 [2]?
The GI50 was > 100 µM (inactive).

And the GI50 [3]?
The GI50 was > 100 µM (inactive).

And the GI50 [4]?
Its GI50 is > 100 µM (inactive).

With CC(SC1=CC(=O)c2c(O)ccc(O)c2C1=O)C(=O)O (stereo not given) as the compound, how does the GI50 [5] read?
Its GI50 is > 35.5 µM (inactive).

And the GI50 [1]?
The GI50 was > 60.4 µM (inactive).

What about the GI50 [6] of the same compound?
The GI50 was 56.4 µM (inactive).

And the GI50 [3]?
The GI50 was > 49.9 µM (inactive).

Which results are given for COc1ccc(/C=c2/s/c(=C(\C#N)c3nc4ccccc4[nH]3)n(-c3ccccc3)c2=O)cc1?
GI50 [7]: 94.6 µM (inactive); GI50 [5]: 2.32 µM (inactive); GI50 [1]: 36.8 µM (inactive); GI50 [8]: 18.7 µM (inactive); GI50 [2]: 45.1 µM (inactive); GI50 [3]: 30.1 µM (inactive); GI50 [4]: 5.06 µM (inactive); GI50 [9]: 21 µM (inactive)

With COc1cc(/C=C\c2cccnc2)cc(OC)c1OC as the compound, how does the GI50 [5] read?
Its GI50 is 48.1 µM (inactive).

What about the GI50 [1] of the same compound?
The GI50 was 33.1 µM (inactive).

And the GI50 [3]?
The GI50 was 48.9 µM (inactive).

Which results are given for NCCCCNCCCNC(=O)c1nc(-c2nc(CCN)sc2Cl)sc1Cl?
GI50 [5]: 3.46 µM (inactive); GI50 [1]: 50.4 µM (inactive); GI50 [3]: > 100 µM (inactive)
